Source: BindingDB's records for doi:10.1021/jm00044a013 (Alkermes, 1994)

molecular target: Calpain-1 (Sus scrofa); experiment: In vitro inhibition of porcine erythrocyte calpain 1.

How did the Ki turn out when `CCNC(=O)C(O)[C@@H](Cc1ccccc1)NC(=O)[C@H](CC(C)C)NC(=O)OCc1ccccc1` (stereo partly drawn) [[(S)-1-((R)-1-Benzyl-2-ethylcarbamoyl-2-hydroxy-ethylcarbamoyl)-3-methyl-butyl]-carbamic acid benzyl ester] was run?
The Ki was > 350000 nM.

`CC(C)C[C@H](NC(=O)OCc1ccccc1)C(=O)N[C@H](Cc1ccccc1)C(=O)C(=O)N[C@@H](C)C(=O)O` [(S)-2-[(R)-3-((S)-2-Benzyloxycarbonylamino-4-methyl-pentanoylamino)-2-oxo-4-phenyl-butyrylamino]-propionic acid] was tested. Which Ki did it give?
The Ki was 718 nM.

Which Ki does the source give for `COC(=O)[C@H](C)NC(=O)C(=O)[C@@H](Cc1ccccc1)NC(=O)[C@H](CC(C)C)NC(=O)OCc1ccccc1` [(S)-2-[(R)-3-((S)-2-Benzyloxycarbonylamino-4-methyl-pentanoylamino)-2-oxo-4-phenyl-butyrylamino]-propionic acid methyl ester] here?
The Ki was 92 nM.
